From article doi:10.1101/2020.06.27.175109v1 (biorxiv, 2020)

Legend:
[1] = biological target: T1, CK2α (full-length, NanoLuc fusion) (Homo sapiens, UniProt P68400); experiment: NanoBRET tracer displacement, intact HEK293T; type: cell-based; conditions: intact cells, […] h, […] °C, tracer competition
[2] = biological target: T2, CK2α’ (full-length, NanoLuc fusion) (Homo sapiens, UniProt P19784); experiment: NanoBRET tracer displacement, intact HEK293T; type: cell-based; conditions: intact cells, […] h, […] °C, tracer competition
[3] = biological target: T2, CK2α’ (full-length, NanoLuc fusion); experiment: cell-based; set-up: species or system HEK293T
[4] = biological target: T1, CK2α (full-length, NanoLuc fusion); experiment: cell-based; set-up: species or system HEK293T

T2 sequence (P19784 whole entry, the tested form may be a part): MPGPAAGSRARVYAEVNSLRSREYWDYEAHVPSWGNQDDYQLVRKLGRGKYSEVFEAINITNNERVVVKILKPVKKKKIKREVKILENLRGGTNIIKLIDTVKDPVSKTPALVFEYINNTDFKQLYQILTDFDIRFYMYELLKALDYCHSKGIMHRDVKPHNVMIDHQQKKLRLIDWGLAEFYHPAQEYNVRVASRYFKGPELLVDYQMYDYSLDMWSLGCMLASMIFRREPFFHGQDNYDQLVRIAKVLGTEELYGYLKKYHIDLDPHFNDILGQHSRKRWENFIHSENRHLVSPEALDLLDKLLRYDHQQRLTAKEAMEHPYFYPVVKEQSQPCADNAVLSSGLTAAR
T1 sequence (P68400 whole entry, the tested form may be a part): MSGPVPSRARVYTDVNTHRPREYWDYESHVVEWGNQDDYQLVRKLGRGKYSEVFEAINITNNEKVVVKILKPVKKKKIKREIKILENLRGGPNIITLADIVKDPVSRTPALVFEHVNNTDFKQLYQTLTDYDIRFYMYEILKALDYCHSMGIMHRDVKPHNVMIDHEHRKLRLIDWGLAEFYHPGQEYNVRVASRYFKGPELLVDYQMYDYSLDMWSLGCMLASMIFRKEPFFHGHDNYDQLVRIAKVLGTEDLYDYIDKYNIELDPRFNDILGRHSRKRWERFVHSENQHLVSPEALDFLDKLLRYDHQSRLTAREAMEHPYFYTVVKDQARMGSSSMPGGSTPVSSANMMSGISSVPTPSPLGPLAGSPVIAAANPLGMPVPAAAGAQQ

IC50 [1] [µM] | IC50 [3] [µM] | IC50 [4] [µM] | SMILES | IC50 [2] [µM]
5.7 |  |  | O=C(O)c1ccc2cc1OCCOCCNc1ccn3ncc-2c3n1 [compound 34, 7,10-Dioxa-13,17,18,21-tetraazatetracyclo[12.5.2.1^2,^6.0^17,^20]docosa-1(20),2,4,6(22),14(21),15,18-heptaene-5-carboxylic acid] | 16.2
 |  |  | CC(C)(C)OC(=O)N1CCOCCOc2cc(ccc2C(=O)O)-c2cnn3ccc1nc23 [compound 32, 13-[(tert-Butoxy)carbonyl]-7,10-dioxa-13,17,18,21-tetraazatetracyclo[12.5.2.1^2,^6.0^17,^20]docosa-1(20),2,4,6(22),14(21),15,18-heptaene-5-carboxylic acid] | 7.39
 | > 50 | > 50 | CC(C)(C)OC(=O)N(CCOCCO)c1ccn2ncc(-c3ccc(C#N)c(O)c3)c2n1 [compound 23, tert-Butyl N-[3-(4-cyano-3-hydroxyphenyl)pyrazolo[1,5-a]pyrimidin-5-yl]-N-[2-(2-hydroxyethoxy)ethyl]carbamate] | 
